Assay results taken from ChEMBL document CHEMBL1201862, “PubChem BioAssay data set” (2004).
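These data come from cells grown in 96-well plates and exposed to compound for 48 hours at five concentrations. GI50 = concentration required for 50% inhibition of growth.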 Active and inactive are the calls of the source. No stated cut-off is given here; in the data, active = GI50 up to about 1.1 µM and inactive = higher.

How the values were obtained:
Assay in all cases: NCI anticancer screen, dose series, 48 h
[1] = tested on: UO-31
[2] = tested on: COLO 205
[3] = tested on: A498
[4] = tested on: Hs-578T
[5] = tested on: RPMI-8226
[6] = tested on: PC-3
[7] = tested on: IGROV-1
[8] = tested on: KM12
[9] = tested on: SF-295
[10] = tested on: OVCAR-4
[11] = tested on: SR
[12] = tested on: K562
[13] = tested on: MDA-MB-435
[14] = tested on: SN12C
[15] = tested on: HOP-92
[16] = tested on: MCF7
[17] = tested on: NCI-H460
[18] = tested on: OVCAR-8
[19] = tested on: SK-OV-3
[20] = tested on: U-251
[21] = tested on: MOLT-4
[22] = tested on: TK-10
[23] = tested on: ACHN
[24] = tested on: SK-MEL-2
[25] = tested on: SK-MEL-28
[26] = tested on: NCI/ADR-RES
[27] = tested on: SNB-19
[28] = tested on: M14
[29] = tested on: Malme-3M
[30] = tested on: SF-268
[31] = tested on: HCC 2998
[32] = tested on: SW-620
[33] = tested on: HL-60
[34] = tested on: BT-549
[35] = tested on: UACC-257
[36] = tested on: NCI-H226
[37] = tested on: MDA-N
[38] = tested on: DU-145
[39] = tested on: A549
[40] = tested on: HCT-15
[41] = tested on: UACC-62
[42] = tested on: LOX IMVI
[43] = tested on: MDA-MB-231
[44] = tested on: OVCAR-5
[45] = tested on: HOP-62
[46] = tested on: RXF 393
[47] = tested on: NCI-H522
[48] = tested on: HCT-116
[49] = tested on: 786-0
[50] = tested on: SK-MEL-5
[51] = tested on: SNB-75
[52] = tested on: NCI-H23
[53] = tested on: T47D
[54] = tested on: CCRF-CEM
[55] = tested on: EKVX
[56] = tested on: CAKI-1
[57] = tested on: HT-29
[58] = tested on: SF-539
[59] = tested on: OVCAR-3

Measured: GI50

O=C(CCc1ccccc1)NCCc1ccc(O)c(O)c1
inactive: [1] 4.57 µM | [2] 17 µM | [3] 78.2 µM | [4] > 50.1 µM | [5] 2.54 µM | [6] > 42.1 µM | [7] 23.5 µM | [8] 34.8 µM | [9] > 53.3 µM | [10] 10.4 µM | [11] 4.01 µM | [12] 7.11 µM | [13] 15.6 µM | [14] 36 µM | [15] 17.4 µM | [16] 31.8 µM | [17] 46.9 µM | [18] 30.3 µM | [19] 27.2 µM | [20] 41.2 µM | [21] 3.89 µM | [22] > 100 µM | [23] 14.2 µM | [24] 22 µM | [25] 45.6 µM | [26] 28.4 µM | [27] 48.9 µM | [28] > 54.8 µM | [29] 45.3 µM | [30] 33.8 µM | [31] 53.5 µM | [32] > 100 µM | [33] 3.43 µM | [34] 7.01 µM | [35] 44.6 µM | [36] 21.2 µM | [37] 14.8 µM | [38] > 63.2 µM | [39] 47.5 µM | [41] 34.3 µM | [42] 35.6 µM | [43] 24.8 µM | [44] > 31.6 µM | [45] > 40.6 µM | [46] > 100 µM | [47] 5.26 µM | [48] 27.7 µM | [49] 21.5 µM | [50] 16.7 µM | [51] 84.5 µM | [52] 32.4 µM | [53] 59.4 µM | [54] 1.42 µM | [55] 62.4 µM | [56] 4.99 µM | [57] 39.7 µM | [58] 23.2 µM | [59] 22.2 µM
31.3 µM: [40]

Cc1nc(O)nc(N/N=C/c2ccc(Cl)c(Cl)c2)c1C(=O)Nc1ccc(Cl)c(Cl)c1
11.7 µM: [40]
inactive: [1] > 42.1 µM | [2] 13.1 µM | [3] 3.12 µM | [4] 10.5 µM | [5] 41.3 µM | [6] 12.7 µM | [7] 13.8 µM | [8] 6.49 µM | [9] 10.6 µM | [10] 3.62 µM | [11] 36.3 µM | [12] 11.5 µM | [13] 11.1 µM | [14] 18.1 µM | [15] 17.9 µM | [16] 18.5 µM | [17] 18.4 µM | [18] 4.27 µM | [19] 14 µM | [20] 6.81 µM | [21] 38.5 µM | [22] 11.5 µM | [23] > 38.6 µM | [24] 17 µM | [25] 8.97 µM | [26] 16.3 µM | [27] 9.59 µM | [28] 5.22 µM | [29] 11.6 µM | [30] 10.5 µM | [31] > 51.8 µM | [32] 12.9 µM | [33] 45.8 µM | [34] 19.5 µM | [35] > 24.6 µM | [36] 28.4 µM | [37] 15.7 µM | [38] 12.6 µM | [39] 14 µM | [41] 17.6 µM | [42] 15.1 µM | [43] 2.44 µM | [44] 26.5 µM | [45] 10.8 µM | [46] 15.2 µM | [47] 17.1 µM | [48] 6.75 µM | [49] 10.3 µM | [50] 9.59 µM | [51] 12.3 µM | [52] 13.1 µM | [53] 24.7 µM | [54] 8.65 µM | [55] 30 µM | [56] 17.2 µM | [57] 14.9 µM | [58] 15.7 µM | [59] 9.62 µM

COC(=O)/C=C(/C(=O)OC)c1cc2ccc3c([nH]c4ccccc43)c(C)c-2c1
3.94 µM: [40]
inactive: [1] 3.79 µM | [2] 1.75 µM | [3] 8.04 µM | [4] 3.41 µM | [5] 3.72 µM | [6] 2.68 µM | [7] 2.74 µM | [8] 3.73 µM | [9] 4.12 µM | [10] 4.95 µM | [11] 2.74 µM | [12] 2.54 µM | [13] 3.94 µM | [14] 10.1 µM | [15] 1.21 µM | [16] 2.79 µM | [17] 4.45 µM | [18] 3.03 µM | [19] 7.69 µM | [20] 3.85 µM | [21] 3.13 µM | [22] 15.2 µM | [23] 6.61 µM | [24] 7.5 µM | [25] 5.55 µM | [26] 3.46 µM | [27] 9.29 µM | [28] 4.37 µM | [29] 5.21 µM | [30] 4.26 µM | [31] 3.92 µM | [32] 4.93 µM | [33] 3.15 µM | [34] 4.78 µM | [35] 6.95 µM | [36] 5.98 µM | [37] 2.9 µM | [38] 9.73 µM | [39] 4.73 µM | [41] 4.66 µM | [42] 3.66 µM | [43] 3.8 µM | [44] 3.56 µM | [45] 12.1 µM | [46] 7.31 µM | [47] 2.54 µM | [48] 4.49 µM | [49] 4.78 µM | [50] 2.88 µM | [51] 5.26 µM | [52] 3.96 µM | [53] 3.6 µM | [54] 2.9 µM | [55] 3.76 µM | [56] 6.32 µM | [57] 2.78 µM | [58] 11.4 µM | [59] 3.4 µM

Cc1ccc(C(=O)NC2C(=O)NC(C(C)C)C(=O)N3CCCC3C(=O)N(C)CC(=O)N(C)C(C(C)C)C(=O)OC2C)c2c1Oc1c(c(C(=O)NC3C(=O)NC(C(C)C)C(=O)N4CCCC4C(=O)N(C)CC(=O)N(C)C(C(C)C)C(=O)OC3C)c3nc(-c4ccccc4)c(=O)oc3c1C)N2 (stereo unspecified)
0.0377 µM: [40]
active: [1] 0.0103 µM | [2] 0.0039 µM | [3] < 0.001 µM | [4] 0.00134 µM | [5] 0.00147 µM | [6] 0.00219 µM | [7] < 0.001 µM | [8] < 0.001 µM | [9] < 0.001 µM | [10] 0.151 µM | [11] 0.01 µM | [12] 0.00312 µM | [13] 0.00154 µM | [14] < 0.001 µM | [15] 0.016 µM | [16] < 0.001 µM | [17] < 0.001 µM | [18] < 0.001 µM | [19] 0.00159 µM | [20] < 0.001 µM | [21] 0.00222 µM | [22] 0.0578 µM | [23] 0.00515 µM | [24] 0.00112 µM | [25] < 0.001 µM | [26] 0.189 µM | [27] < 0.001 µM | [28] 0.0231 µM | [29] 0.00361 µM | [30] < 0.001 µM | [31] < 0.001 µM | [32] 0.004 µM | [33] 0.00995 µM | [34] < 0.001 µM | [35] 0.00871 µM | [36] 0.00163 µM | [37] 0.00348 µM | [38] 0.00422 µM | [39] < 0.001 µM | [41] < 0.001 µM | [42] < 0.001 µM | [43] 0.00762 µM | [44] 0.00216 µM | [45] < 0.001 µM | [46] 0.00161 µM | [47] 0.0024 µM | [48] < 0.001 µM | [49] < 0.001 µM | [50] 0.00177 µM | [51] 0.00101 µM | [52] 0.00167 µM | [53] 0.00453 µM | [54] 0.00255 µM | [55] 0.00705 µM | [56] 0.00948 µM | [57] < 0.001 µM | [58] < 0.001 µM | [59] 0.01 µM
